{"source": "PubChem BioAssay AID2060493", "about": "(Molecular Pharmacology Branch, DTP, NCI, 2025)", "system": "616215-338-R-J1-PDC tumor spheroids, viability", "assay": "Anticancer human tumor 616215-338-R-J1-PDC patient-derived colon adenocarcinoma cell line growth inhibition [GQUAD]", "settings": "spheroids with HUVEC and MSC; for pIC50: curve of first compound; for viability, T/C: stronger effect = lower value", "procedure,_shortened": "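Multi-cell-type spheroids of tumor cells with HUVEC and mesenchymal stem cells, treated with drug combinations. Concentrations descend in half-log steps from near clinical Cmax, or from 10 microM where Cmax is unknown; viability read-out.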", "key": {"[1]": {"settings": "second compound 0.0316 µM, first compound 0.0316 µM"}, "[2]": {"settings": "second compound 0.0316 µM, first compound 0.1 µM"}, "[3]": {"settings": "second compound 0.0316 µM, first compound 0.316 µM"}, "[4]": {"settings": "second compound 0.0316 µM, first compound 1 µM"}, "[5]": {"settings": "second compound 0.0316 µM, first compound 3.16 µM"}, "[6]": {"settings": "second compound 0.0316 µM, first compound 10 µM"}, "[7]": {"settings": "second compound 0.1 µM, first compound 0.0316 µM"}, "[8]": {"settings": "second compound 0.1 µM, first compound 0.1 µM"}, "[9]": {"settings": "second compound 0.1 µM, first compound 0.316 µM"}, "[10]": {"settings": "second compound 0.1 µM, first compound 1 µM"}, "[11]": {"settings": "second compound 0.1 µM, first compound 3.16 µM"}, "[12]": {"settings": "second compound 0.1 µM, first compound 10 µM"}, "[13]": {"settings": "second compound 0.316 µM, first compound 0.0316 µM"}, "[14]": {"settings": "second compound 0.316 µM, first compound 0.1 µM"}, "[15]": {"settings": "second compound 0.316 µM, first compound 0.316 µM"}, "[16]": {"settings": "second compound 0.316 µM, first compound 1 µM"}, "[17]": {"settings": "second compound 0.316 µM, first compound 3.16 µM"}, "[18]": {"settings": "second compound 0.316 µM, first compound 10 µM"}, "[19]": {"settings": "second compound 1 µM, first compound 0.0316 µM"}, "[20]": {"settings": "second compound 1 µM, first compound 0.1 µM"}, "[21]": {"settings": "second compound 1 µM, first compound 0.316 µM"}, "[22]": {"settings": "second compound 1 µM, first compound 1 µM"}, "[23]": {"settings": "second compound 1 µM, first compound 3.16 µM"}, "[24]": {"settings": "second compound 1 µM, first compound 10 µM"}, "[25]": {"settings": "second compound 3.16 µM, first compound 0.0316 µM"}, "[26]": {"settings": "second compound 3.16 µM, first compound 0.1 µM"}, "[27]": {"settings": "second compound 3.16 µM, first compound 0.316 µM"}, "[28]": {"settings": "second compound 3.16 µM, first compound 1 µM"}, "[29]": {"settings": "second compound 3.16 µM, first compound 3.16 µM"}, "[30]": {"settings": "second compound 3.16 µM, first compound 10 µM"}, "[31]": {"settings": "second compound 10 µM, first compound 0.0316 µM"}, "[32]": {"settings": "second compound 10 µM, first compound 0.1 µM"}, "[33]": {"settings": "second compound 10 µM, first compound 0.316 µM"}, "[34]": {"settings": "second compound 10 µM, first compound 1 µM"}, "[35]": {"settings": "second compound 10 µM, first compound 3.16 µM"}, "[36]": {"settings": "second compound 10 µM, first compound 10 µM"}}, "note": "pIC50: −log10 of the molar value.", "data": [{"compound": "COc1ncnc(C2CC2)c1-c1ncc2cnn(Cc3ccc(-c4nc(C(F)(F)F)cn4C(C)C)cc3)c2n1", "note": "+ Cc1cnc(CNC(=O)c2c(=O)c3ccc(N4CCCN(C)CC4)nc3n3c2sc2ccccc23)cn1;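 also: spheroids exposed to agents for 7 days before readout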;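 as to viability, T/C: percent viability relative to DMSO vehicle control wells taken as 100%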", "values": [{"measurement": "pIC50", "setting": "second compound 0.0316 µM", "result": "< 5.00"}, {"measurement": "pIC50", "setting": "second compound 0.1 µM", "result": "< 5.00"}, {"measurement": "pIC50", "setting": "second compound 0.316 µM", "result": "> 7.50"}, {"measurement": "pIC50", "setting": "second compound 1 µM", "result": "> 7.50"}, {"measurement": "pIC50", "setting": "second compound 3.16 µM", "result": "> 7.50"}, {"measurement": "pIC50", "setting": "second compound 10 µM", "result": "> 7.50"}, {"measurement": "viability, T/C", "setting": "[1]", "result": 108, "unit": "%"}, {"measurement": "viability, T/C", "setting": "[2]", "result": 98.7, "unit": "%"}, {"measurement": "viability, T/C", "setting": "[3]", "result": 113, "unit": "%"}, {"measurement": "viability, T/C", "setting": "[4]", "result": 97.2, "unit": "%"}, {"measurement": "viability, T/C", "setting": "[5]", "result": 108, "unit": "%"}, {"measurement": "viability, T/C", "setting": "[6]", "result": 100, "unit": "%"}, {"measurement": "viability, T/C", "setting": "[7]", "result": 70.8, "unit": "%"}, {"measurement": "viability, T/C", "setting": "[8]", "result": 72.2, "unit": "%"}, {"measurement": "viability, T/C", "setting": "[9]", "result": 62.1, "unit": "%"}, {"measurement": "viability, T/C", "setting": "[10]", "result": 57.5, "unit": "%"}, {"measurement": "viability, T/C", "setting": "[11]", "result": 64.2, "unit": "%"}, {"measurement": "viability, T/C", "setting": "[12]", "result": 58.3, "unit": "%"}, {"measurement": "viability, T/C", "setting": "[13]", "result": 48.9, "unit": "%"}, {"measurement": "viability, T/C", "setting": "[14]", "result": 46, "unit": "%"}, {"measurement": "viability, T/C", "setting": "[15]", "result": 34.3, "unit": "%"}, {"measurement": "viability, T/C", "setting": "[16]", "result": 34.8, "unit": "%"}, {"measurement": "viability, T/C", "setting": "[17]", "result": 41.4, "unit": "%"}, {"measurement": "viability, T/C", "setting": "[18]", "result": 66.7, "unit": "%"}, {"measurement": "viability, T/C", "setting": "[19]", "result": 22.7, "unit": "%"}, {"measurement": "viability, T/C", "setting": "[20]", "result": 35.4, "unit": "%"}, {"measurement": "viability, T/C", "setting": "[21]", "result": 36.1, "unit": "%"}, {"measurement": "viability, T/C", "setting": "[22]", "result": 32.6, "unit": "%"}, {"measurement": "viability, T/C", "setting": "[23]", "result": 34.3, "unit": "%"}, {"measurement": "viability, T/C", "setting": "[24]", "result": 31.3, "unit": "%"}, {"measurement": "viability, T/C", "setting": "[25]", "result": 23, "unit": "%"}, {"measurement": "viability, T/C", "setting": "[26]", "result": 28.7, "unit": "%"}, {"measurement": "viability, T/C", "setting": "[27]", "result": 22.4, "unit": "%"}, {"measurement": "viability, T/C", "setting": "[28]", "result": 26.7, "unit": "%"}, {"measurement": "viability, T/C", "setting": "[29]", "result": 40.3, "unit": "%"}, {"measurement": "viability, T/C", "setting": "[30]", "result": 27.1, "unit": "%"}, {"measurement": "viability, T/C", "setting": "[31]", "result": 13.8, "unit": "%"}, {"measurement": "viability, T/C", "setting": "[32]", "result": 28.4, "unit": "%"}, {"measurement": "viability, T/C", "setting": "[33]", "result": 21.3, "unit": "%"}, {"measurement": "viability, T/C", "setting": "[34]", "result": 25.5, "unit": "%"}, {"measurement": "viability, T/C", "setting": "[35]", "result": 35.1, "unit": "%"}, {"measurement": "viability, T/C", "setting": "[36]", "result": 22.1, "unit": "%"}]}, {"compound": "Cc1cccc(N(C)C(=O)C2C(O)CCN2c2nc(C)cc(C(F)(F)F)c2C#N)c1", "note": "(centres undefined) + Cc1[nH]c2ccc(F)cc2c1-c1nc2c3cccnc3c3ncccc3c2[nH]1", "values": [{"measurement": "pIC50", "setting": "second compound 0.0316 µM", "result": "< 5.00"}, {"measurement": "pIC50", "setting": "second compound 0.1 µM", "result": "< 5.00"}, {"measurement": "pIC50", "setting": "second compound 0.316 µM", "result": "< 5.00"}, {"measurement": "pIC50", "setting": "second compound 1 µM", "result": "< 5.00"}, {"measurement": "pIC50", "setting": "second compound 3.16 µM", "result": "< 5.00"}, {"measurement": "pIC50", "setting": "second compound 10 µM", "result": "< 5.00"}, {"measurement": "viability, T/C", "setting": "[1]", "result": 92.8, "unit": "%"}, {"measurement": "viability, T/C", "setting": "[2]", "result": 102, "unit": "%"}, {"measurement": "viability, T/C", "setting": "[3]", "result": 93.7, "unit": "%"}, {"measurement": "viability, T/C", "setting": "[4]", "result": 87.6, "unit": "%"}, {"measurement": "viability, T/C", "setting": "[5]", "result": 101, "unit": "%"}, {"measurement": "viability, T/C", "setting": "[6]", "result": 104, "unit": "%"}, {"measurement": "viability, T/C", "setting": "[7]", "result": 99.4, "unit": "%"}, {"measurement": "viability, T/C", "setting": "[8]", "result": 93.8, "unit": "%"}, {"measurement": "viability, T/C", "setting": "[9]", "result": 99.1, "unit": "%"}, {"measurement": "viability, T/C", "setting": "[10]", "result": 104, "unit": "%"}, {"measurement": "viability, T/C", "setting": "[11]", "result": 99.6, "unit": "%"}, {"measurement": "viability, T/C", "setting": "[12]", "result": 95.5, "unit": "%"}, {"measurement": "viability, T/C", "setting": "[13]", "result": 91, "unit": "%"}, {"measurement": "viability, T/C", "setting": "[14]", "result": 92.1, "unit": "%"}, {"measurement": "viability, T/C", "setting": "[15]", "result": 99.4, "unit": "%"}, {"measurement": "viability, T/C", "setting": "[16]", "result": 100, "unit": "%"}, {"measurement": "viability, T/C", "setting": "[17]", "result": 97.6, "unit": "%"}, {"measurement": "viability, T/C", "setting": "[18]", "result": 96.6, "unit": "%"}, {"measurement": "viability, T/C", "setting": "[19]", "result": 103, "unit": "%"}, {"measurement": "viability, T/C", "setting": "[20]", "result": 92, "unit": "%"}, {"measurement": "viability, T/C", "setting": "[21]", "result": 96.7, "unit": "%"}, {"measurement": "viability, T/C", "setting": "[22]", "result": 93.9, "unit": "%"}, {"measurement": "viability, T/C", "setting": "[23]", "result": 105, "unit": "%"}, {"measurement": "viability, T/C", "setting": "[24]", "result": 103, "unit": "%"}, {"measurement": "viability, T/C", "setting": "[25]", "result": 94.4, "unit": "%"}, {"measurement": "viability, T/C", "setting": "[26]", "result": 87, "unit": "%"}, {"measurement": "viability, T/C", "setting": "[27]", "result": 96.5, "unit": "%"}, {"measurement": "viability, T/C", "setting": "[28]", "result": 91.6, "unit": "%"}, {"measurement": "viability, T/C", "setting": "[29]", "result": 104, "unit": "%"}, {"measurement": "viability, T/C", "setting": "[30]", "result": 107, "unit": "%"}, {"measurement": "viability, T/C", "setting": "[31]", "result": 108, "unit": "%"}, {"measurement": "viability, T/C", "setting": "[32]", "result": 94.4, "unit": "%"}, {"measurement": "viability, T/C", "setting": "[33]", "result": 96.2, "unit": "%"}, {"measurement": "viability, T/C", "setting": "[34]", "result": 88, "unit": "%"}, {"measurement": "viability, T/C", "setting": "[35]", "result": 107, "unit": "%"}, {"measurement": "viability, T/C", "setting": "[36]", "result": 86.5, "unit": "%"}]}]}
